Consider one compound from patent publication US20170052170A1, “NOVEL CELL LINES AND METHODS” (priority 2009, published 2017).

This experiment deals with T1, sweet taste receptor (endogenously expressed T1R2/T1R3) (Homo sapiens, UniProt Q7RTX0+Q8TE23).
T1 construct: endogenous in cells; host or cells: HuTu (ATCC HTB-40), H716 (ATCC CCL-251), HEK 293T (ATCC CRL-11268); some with prior UV treatment
T1 sequence (Q8TE23 20-839): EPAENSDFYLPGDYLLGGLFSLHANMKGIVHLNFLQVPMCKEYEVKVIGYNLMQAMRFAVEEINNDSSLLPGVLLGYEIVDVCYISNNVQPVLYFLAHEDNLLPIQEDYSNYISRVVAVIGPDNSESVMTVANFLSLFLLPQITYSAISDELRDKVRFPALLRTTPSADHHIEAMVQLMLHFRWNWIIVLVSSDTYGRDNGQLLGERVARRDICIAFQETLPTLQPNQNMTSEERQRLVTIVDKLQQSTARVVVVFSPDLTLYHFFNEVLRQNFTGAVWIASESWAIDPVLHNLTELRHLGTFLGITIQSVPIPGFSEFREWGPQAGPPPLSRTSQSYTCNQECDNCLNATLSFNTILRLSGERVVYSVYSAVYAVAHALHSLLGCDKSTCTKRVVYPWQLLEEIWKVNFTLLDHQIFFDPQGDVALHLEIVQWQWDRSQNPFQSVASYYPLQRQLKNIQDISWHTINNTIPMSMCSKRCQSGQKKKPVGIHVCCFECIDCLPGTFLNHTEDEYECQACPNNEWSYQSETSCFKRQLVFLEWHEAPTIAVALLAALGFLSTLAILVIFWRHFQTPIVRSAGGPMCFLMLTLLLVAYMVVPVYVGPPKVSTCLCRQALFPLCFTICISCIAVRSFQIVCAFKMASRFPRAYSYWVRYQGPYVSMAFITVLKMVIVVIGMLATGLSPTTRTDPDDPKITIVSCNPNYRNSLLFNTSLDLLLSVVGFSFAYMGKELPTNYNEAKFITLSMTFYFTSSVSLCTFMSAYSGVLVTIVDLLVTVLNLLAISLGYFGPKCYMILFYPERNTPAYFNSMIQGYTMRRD
T1 sequence (Q7RTX0 21-852): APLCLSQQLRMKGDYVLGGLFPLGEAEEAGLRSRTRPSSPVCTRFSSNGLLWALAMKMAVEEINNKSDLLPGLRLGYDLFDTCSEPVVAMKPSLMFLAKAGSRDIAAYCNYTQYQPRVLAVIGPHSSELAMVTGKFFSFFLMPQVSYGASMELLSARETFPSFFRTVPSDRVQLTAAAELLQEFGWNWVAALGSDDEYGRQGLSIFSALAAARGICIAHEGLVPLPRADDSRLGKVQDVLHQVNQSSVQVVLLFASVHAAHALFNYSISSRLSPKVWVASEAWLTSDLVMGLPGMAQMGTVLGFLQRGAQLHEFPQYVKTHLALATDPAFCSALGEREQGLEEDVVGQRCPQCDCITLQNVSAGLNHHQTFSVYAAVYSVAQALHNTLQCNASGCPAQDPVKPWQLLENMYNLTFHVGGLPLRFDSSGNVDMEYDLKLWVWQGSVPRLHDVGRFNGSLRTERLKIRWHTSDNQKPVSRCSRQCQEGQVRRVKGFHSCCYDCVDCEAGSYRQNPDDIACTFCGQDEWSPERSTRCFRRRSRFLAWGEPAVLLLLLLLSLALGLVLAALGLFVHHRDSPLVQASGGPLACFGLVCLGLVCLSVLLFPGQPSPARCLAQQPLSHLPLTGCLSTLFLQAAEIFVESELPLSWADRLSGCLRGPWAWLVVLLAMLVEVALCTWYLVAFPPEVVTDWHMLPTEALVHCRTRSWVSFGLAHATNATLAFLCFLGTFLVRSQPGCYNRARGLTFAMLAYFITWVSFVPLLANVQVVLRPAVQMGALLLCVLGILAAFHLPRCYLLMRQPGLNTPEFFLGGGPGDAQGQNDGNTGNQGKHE
The experiment is described as follows: calcium flux response to fructose of cells cultured from individual isolated HuTu, H716 and 293T cells. In kind it is cell-based. To be noted: fructose final concentration 15 mM, control response subtracted. As to the method:
FIGS. 28 A-C depict representative traces of the functional cell-based response of cells of the invention to the addition of fructose (to a final concentration of 15 mM) compared to background. Cells cultured from individual isolated cells were tested (black traces) compared to control cells (gray traces). […] The cell-based assay was designed to report calcium flux using a fluorescent calcium signaling dye. Fluorescent assay response is plotted along the Y-axis and time is indicated along the X-axis. Arrows indicate the timepoint at which fructose was added. FIG. 28A depicts traces from cells cultured from an individual HuTu cell compared to control. FIG. 28B depicts traces from cells cultured from an individual H716 cell compared to control. FIG. 28C depicts traces from cells cultured from an individual 293T cell compared to control.
In a specific aspect, provided herein is a method for isolating a cell that endogenously expresses a sweet taste receptor T1R2 subunit and/or sweet taste receptor T1R3 subunit, wherein the method comprises the steps of: • a) providing a population of cells; • b) introducing into the cells a signaling probe or molecular beacon that detects expression of T1R2 and/or introducing into the cells a molecular beacon that detects expression of T1R3; and • c) isolating cells that express a sweet taste receptor T1R2 subunit and/or sweet taste receptor T1R3 subunit. […]
(In general: Calcium assays in cells follow changes in intracellular calcium, usually with a dye or a luminescent sensor.)

For the compound `O=C(CO)[C@@H](O)[C@H](O)[C@H](O)CO` [fructose], the “functional cell-based (calcium flux) response compared to control cells” value is “higher response”.
